Here are results for 30 molecules from US8436011B2, “Pyridinopyridinone derivatives, preparation thereof and therapeutic use thereof” (Sanofi, priority 2008, dated 2013).

Values joined by “and” are separate entries in the source; they are usually repeats but may differ in a detail not shown here. Equal entries are not always repeated. Structures can show the parent of a compound that is named as a salt.

`CCn1c(N)c(C(=O)NC)c(=O)c2ccc(-c3ccc(CC(=O)NCCN4CCOCC4)cc3)nc21` (as salt: HCl) [compound 18, 2-amino-1-ethyl-N-methyl-7-(4-{2-[(2-morpholin-4-ylethyl)amino]-2-oxoethyl}phenyl)-4-oxo-1,4-dihydro-1,8-naphthyridine-3-carboxamide] came in with a melting point of 220 to 222 °C.
On to `CCn1c(N)c(C(=O)NC)c(=O)c2ccc(-c3ccc(CC(=O)NCCc4ccccn4)cc3)nc21` (as salt: HCl), for which the melting point came to 248 °C.
Then `CCn1c(N)c(C(=O)NC)c(=O)c2ccc(-c3ccc(C(C)C(=O)Nc4ccccn4)cc3)nc21` (stereo not drawn) (as salt: HCl) [compound 20, 2-amino-1-ethyl-N-methyl-7-{4-[1-methyl-2-oxo-2-(pyrid-2-ylamino)ethyl]-phenyl}-4-oxo-1,4-dihydro-1,8-naphthyridine-3-carboxamide], with 188 °C; and `CCn1c(N)c(C(=O)NC)c(=O)c2ccc(-c3ccc(CC(=O)Nc4ccncc4)cc3)nc21` (as salt: HCl), with 250 °C; and `CCN1CCOCC1CNC(=O)Cc1ccc(-c2ccc3c(=O)c(C(=O)NC)c(N)n(CC)c3n2)cc1` (stereo not drawn) (as salt: HCl) [compound 22, 2-amino-1-ethyl-7-[4-(2-{[(4-ethylmorpholin-3-yl)methyl]amino}-2-oxoethyl)phenyl]-N-methyl-4-oxo-1,4-dihydro-1,8-naphthyridine-3-carboxamide], with 188 to 190 °C and 190 °C.
Then `CCn1c(N)c(C(=O)NC)c(=O)c2ccc(-c3ccc(CC(=O)NCCCN4CCOCC4)cc3)nc21` (as salt: HCl) [compound 38, 2-amino-1-ethyl-N-methyl-7-(4-{2-[(3-morpholin-4-ylpropyl)amino]-2-oxoethyl}phenyl)-4-oxo-1,4-dihydro-1,8-naphthyridine-3-carboxamide], with 196 °C; and `CCn1c(N)c(C(=O)NC)c(=O)c2ccc(-c3ccc(CC(=O)NC[C@H]4CCCN4CC(F)(F)F)cc3)nc21` [compound 30, 2-amino-1-ethyl-N-methyl-4-oxo-7-{4-[2-oxo-2-({[(2R)-1-(2,2,2-trifluoroethyl)pyrrolidin-2-yl]methyl}amino)ethyl]phenyl}-1,4-dihydro-1,8-naphthyridine-3-carboxamide], with over 260 °C; and `CCN1CCCC1CNC(=O)Cc1ccc(-c2ccc3c(=O)c(C(=O)NC)c(N)n(CC(F)(F)F)c3n2)cc1` (stereo not drawn) [compound 49, 2-amino-7-[4-(2-{[(1-ethylpyrrolidin-2-yl)methyl]amino}-2-oxoethyl)-phenyl]-N-methyl-4-oxo-1-(2,2,2-trifluoroethyl)-1,4-dihydro-1,8-naphthyridine-3-carboxamide], with 300 °C.
Then `CCn1c(N)c(C(=O)NC)c(=O)c2ccc(-c3ccc(CC(=O)NC[C@H]4CCCN4S(C)(=O)=O)cc3)nc21` [compound 28, 2-amino-1-ethyl-N-methyl-7-{4-[2-({[(2R)-1-(methylsulfonyl)pyrrolidin-2-yl]methyl}amino)-2-oxoethyl]phenyl}-4-oxo-1,4-dihydro-1,8-naphthyridine-3-carboxamide], with over 260 °C.
For the molecule `CCN1CCOCC1CNC(=O)Cc1ccc(-c2ccc3c(=O)c(C(=O)NC)c(N)n(CC)c3n2)cn1` (stereo not drawn) (as salt: HCl) [compound 23, 2-amino-1-ethyl-7-[6-(2-{[(4-ethylmorpholin-3-yl)methyl]amino}-2-oxoethyl)pyrid-3-yl]-N-methyl-4-oxo-1,4-dihydro-1,8-naphthyridine-3-carboxamide], the melting point is 199 °C.
`CCN1CCCC1CNC(=O)Cc1cccc(-c2ccc3c(=O)c(C(=O)NC)c(N)n(CC)c3n2)c1` (stereo not drawn) (as salt: HCl) [compound 62, 2-amino-1-ethyl-7-[3-(2-{[(1-ethylpyrrolidin-2-yl)methyl]amino}-2-oxoethyl)phenyl]-N-methyl-4-oxo-1,4-dihydro-1,8-naphthyridine-3-carboxamide] came in with a melting point of 213 °C.
Then `CCn1c(N)c(C(=O)NC)c(=O)c2ccc(-c3ccc(CC(=O)NCc4cncn4C)cc3)nc21` (as salt: HCl) [compound 36, 2-amino-1-ethyl-N-methyl-7-[4-(2-{[(1-methyl-1H-imidazol-5-yl)methyl]amino}-2-oxoethyl)phenyl]-4-oxo-1,4-dihydro-1,8-naphthyridine-3-carboxamide], with 270 °C.
Then `CCn1c(N)c(C(=O)NC)c(=O)c2ccc(-c3ccc(CC(=O)NC4CCCC4)cc3)nc21`, with 300 °C.
Under `CCN1CCOCC1CNC(=O)C(C)c1ccc(-c2ccc3c(=O)c(C(=O)NC)c(N)n(CC)c3n2)cc1` (stereo not drawn) (as salt: HCl) [compound 25, 2-amino-1-ethyl-7-[4-(2-{[(4-ethylmorpholin-3-yl)methyl]amino}-1-methyl-2-oxoethyl)phenyl]-N-methyl-4-oxo-1,4-dihydro-1,8-naphthyridine-3-carboxamide] stands 190 °C.
`CCn1c(N)c(C(=O)NC)c(=O)c2ccc(-c3ccc(CC(=O)NC[C@H]4CCCN4CC(F)F)cc3)nc21` (as salt: HCl) [compound 31, 2-amino-7-{4-[2-({[(2R)-1-(2,2-difluoroethyl)pyrrolidin-2-yl]methyl}amino)-2-oxoethyl]phenyl}-1-ethyl-N-methyl-4-oxo-1,4-dihydro-1,8-naphthyridine-3-carboxamide] returned a melting point of 214 to 228 °C.
Under `CCn1c(N)c(C(=O)NC)c(=O)c2ccc(-c3ccc(CC(=O)NCC4COCCN4C4CC4)cc3)nc21` (stereo not drawn) (as salt: HCl) [compound 33, 2-amino-7-[4-(2-{[(4-cyclopropylmorpholin-3-yl)methyl]amino}-2-oxoethyl)phenyl]-1-ethyl-N-methyl-4-oxo-1,4-dihydro-1,8-naphthyridine-3-carboxamide] stands 250 °C; under `CCn1c(N)c(C(=O)NC)c(=O)c2ccc(-c3ccc(CC(=O)NCc4ccccn4)cc3)nc21` (as salt: HCl) [compound 8, 2-amino-1-ethyl-N-methyl-4-oxo-7-(4-{2-oxo-2-[(pyrid-2-ylmethyl)amino]-ethyl}phenyl)-1,4-dihydro-1,8-naphthyridine-3-carboxamide], 268 °C; under `CCN1CCC[C@@H]1CNC(=O)Cc1ccc(-c2ccc3c(=O)c(C(=O)NC)c(N)n(CC(C)C)c3n2)cc1` [compound 53, 2-amino-7-{4-[2-({[(2R)-1-ethylpyrrolidin-2-yl]methyl}amino)-2-oxoethyl]-phenyl}-N-methyl-1-(2-methylpropyl)-4-oxo-1,4-dihydro-1,8-naphthyridine-3-carboxamide], 233 °C.
Then `CCn1c(N)c(C(=O)NC)c(=O)c2ccc(-c3ccc(CC(=O)NC4CC4)cc3)nc21` [compound 10, 2-amino-7-{4-[2-(cyclopropylamino)-2-oxoethyl]phenyl}-1-ethyl-N-methyl-4-oxo-1,4-dihydro-1,8-naphthyridine-3-carboxamide], with over 260 °C.
As for `CCN1CCCC1CNC(=O)Cc1ccc(-c2ccc3c(=O)c(C(=O)NC)c(N)n(CC4CC4)c3n2)cc1` (stereo not drawn), the melting point came to 260 °C.
Under `CCN1CCC[C@@H]1CNC(=O)Cc1nc(-c2ccc3c(=O)c(C(=O)NC)c(N)n(CC)c3n2)cs1` [compound 55, 2-amino-1-ethyl-7-{2-[2-({[(2R)-1-ethylpyrrolidin-2-yl]methyl}amino)-2-oxoethyl]-1,3-thiazol-4-yl}-N-methyl-4-oxo-1,4-dihydro-1,8-naphthyridine-3-carboxamide] stands 214 °C; under `CCN1CCC[C@H]1CNC(=O)Cc1ccc(-c2ccc3c(=O)c(C(=O)NC)c(N)n(CC)c3n2)cc1` [compound 15, 2-amino-1-ethyl-7-{4-[2-({[(2S)-1-ethylpyrrolidin-2-yl]methyl}amino)-2-oxoethyl]phenyl}-N-methyl-4-oxo-1,4-dihydro-1,8-naphthyridine-3-carboxamide], 262 °C.
Then `CCN1CCCC1CNC(=O)Cc1ccc(-c2ccc3c(=O)c(C(=O)NC)c(N)n(CC)c3n2)cc1C` (stereo not drawn) [compound 59, 2-amino-7-[3-methyl-4-(2-{[(1-ethylpyrrolidin-2-yl)methyl]amino}-2-oxoethyl)phenyl]-1-ethyl-N-methyl-4-oxo-1,4-dihydro-1,8-naphthyridine-3-carboxamide], with 277 °C.
Molecule `CNC(=O)c1c(N)n(CCCOC)c2nc(-c3ccc(CC(=O)Nc4ccccn4)cc3)ccc2c1=O` (as salt: HCl) gave a melting point of 230 °C.
Take `CCn1c(N)c(C(=O)NC)c(=O)c2ccc(-c3ccc(CC(=O)Nc4ccccn4)cn3)nc21` (as salt: HCl) [compound 19, 2-amino-1-ethyl-N-methyl-4-oxo-7-{5-[2-oxo-2-(pyrid-2-ylamino)-ethyl]pyrid-2-yl}-1,4-dihydro-1,8-naphthyridine-3-carboxamide]: the melting point fell in the range of 268 to 288 °C.
Then `CCn1c(N)c(C(=O)NC)c(=O)c2ccc(-c3ccc(CC(=O)Nc4cccnc4)cc3)nc21` (as salt: HCl) [compound 3, 2-amino-1-ethyl-N-methyl-4-oxo-7-{4-[2-oxo-2-(pyrid-3-ylamino)ethyl]-phenyl}-1,4-dihydro-1,8-naphthyridine-3-carboxamide], with 270 °C; and `CCN1CCCC1CN(C)C(=O)Cc1ccc(-c2ccc3c(=O)c(C(=O)NC)c(N)n(CC)c3n2)cc1` (stereo not drawn), with 138 °C.
Molecule `CCn1c(N)c(C(=O)NC)c(=O)c2ccc(-c3ccc(CC(=O)NC[C@H]4CCCN4CCF)cc3)nc21` (as salt: hydrochloride) [compound 27, 2-amino-1-ethyl-7-{4-[2-({[(2R)-1-(2-fluoroethyl)pyrrolidin-2-yl]methyl}-amino)-2-oxoethyl]phenyl}-N-methyl-4-oxo-1,4-dihydro-1,8-naphthyridine-3-carboxamide] gave a melting point of 180 °C.
Under `CCn1c(N)c(C(=O)NC)c(=O)c2ccc(-c3ccc(CC(=O)Nc4ccccn4)cc3)nc21` (as salt: HCl) [compound 4, 2-amino-1-ethyl-N-methyl-4-oxo-7-{4-[2-oxo-2-(pyrid-2-ylamino)ethyl]-phenyl}-1,4-dihydro-1,8-naphthyridine-3-carboxamide] stands 258 °C.
As to `CCn1c(N)c(C(=O)NC)c(=O)c2ccc(-c3ccc(CC(=O)NCCc4ccccc4)cc3)nc21`, the melting point turned out to be 270 °C.

The melting point is the temperature, or range, at which the solid turns liquid.
